Measurements from patent US8586588B2, “Aryl pyridazinone derivatives and their use as H3 receptor ligands” (Cephalon, Inc., priority 2006, dated 2013).

Key:
[1] = target: T1, human H3 receptor (Homo sapiens, UniProt Q9Y5N1); assay: Human H3 radioligand binding ([3H]-N-alpha-methylhistamine, CHO cell membranes, SPA); conditions: Table B, binding constant as letter class
T1 construct: expressed in transfected cells
Method in brief: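 Scintillation proximity format: bead-proximal [3H]-N-alpha-methylhistamine (approximately 1 nM final) bound to human H3 receptor in CHO membranes was counted after 4 h at room temperature, light-protected. Buffer was pH 7.4 Tris/MgCl2/BSA; test compounds spanned 0.01 nM-30 μM; 10 μM clobenpropit set non-specific binding.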

[2] = target: T2, rat histamine H3 receptor (Rattus norvegicus, UniProt Q9QYN8); assay: Rat H3 radioligand binding ([3H]-N-alpha-methylhistamine, CHO-A3 cell membranes, SPA); conditions: Table B, binding constant as letter class; read-out: rat H3 Ki
T2 construct: encoding the entire 445-amino-acid rat histamine H3 receptor; expressed in transfected cells
T2 sequence (Q9QYN8 whole entry): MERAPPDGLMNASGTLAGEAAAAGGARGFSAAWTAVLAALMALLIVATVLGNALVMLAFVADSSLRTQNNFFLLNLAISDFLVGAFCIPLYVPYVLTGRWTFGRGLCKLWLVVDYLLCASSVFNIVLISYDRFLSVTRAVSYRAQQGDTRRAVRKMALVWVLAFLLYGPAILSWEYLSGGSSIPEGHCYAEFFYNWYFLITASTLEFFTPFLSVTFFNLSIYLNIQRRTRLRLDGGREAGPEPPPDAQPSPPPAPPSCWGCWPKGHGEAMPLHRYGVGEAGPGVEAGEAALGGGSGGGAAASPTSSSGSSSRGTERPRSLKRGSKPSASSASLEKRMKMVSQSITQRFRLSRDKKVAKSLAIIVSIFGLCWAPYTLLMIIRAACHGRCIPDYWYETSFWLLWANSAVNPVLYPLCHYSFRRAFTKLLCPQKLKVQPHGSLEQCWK
Method in brief: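 Scintillation proximity displacement of about 1 nM [3H]-N-alpha-methylhistamine, test compound 0.01 nM-30 μM, 4 h, room temperature, in the dark. Receptor source: rat H3 stably transfected into CHO-A3 cells, 10 μg membrane protein, Tris-HCl pH 7.4/MgCl2/BSA buffer. Nonspecific binding defined by 10 μM clobenpropit.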

T1 sequence (Q9Y5N1 whole entry): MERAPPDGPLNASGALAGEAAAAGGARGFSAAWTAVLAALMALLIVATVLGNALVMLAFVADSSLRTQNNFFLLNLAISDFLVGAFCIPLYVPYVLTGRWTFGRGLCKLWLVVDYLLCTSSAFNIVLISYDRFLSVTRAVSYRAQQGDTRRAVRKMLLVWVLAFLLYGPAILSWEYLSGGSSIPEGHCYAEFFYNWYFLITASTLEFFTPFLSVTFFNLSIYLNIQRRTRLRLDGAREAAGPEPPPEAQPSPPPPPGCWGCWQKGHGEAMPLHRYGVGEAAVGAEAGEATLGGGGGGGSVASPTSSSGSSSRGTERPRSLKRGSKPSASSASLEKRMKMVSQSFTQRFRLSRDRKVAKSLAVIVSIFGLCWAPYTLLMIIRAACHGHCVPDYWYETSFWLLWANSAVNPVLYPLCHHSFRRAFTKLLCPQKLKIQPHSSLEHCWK

SMILES | Ki [1] [µM] | Ki [2] [µM]
O=c1cc(-c2ccc(OCCCN3CCCCC3)cc2)cnn1-c1ccccn1 [Example 95, 5-[4-(3-Piperidin-1-yl-propoxy)-phenyl]-2-pyridin-2-yl-2H-pyridazin-3-one] | 0.0001 to 0.1 | 0.0001 to 0.1
O=c1cc(-c2ccc(OCCCN3CCCCCC3)cc2)cnn1-c1ccccn1 [Example 96, 5-[4-(3-Azepan-1-yl-propoxy)-phenyl]-2-pyridin-2-yl-2H-pyridazin-3-one] | 0.0001 to 0.1 | 0.0001 to 0.1
Cc1cccnc1-n1nc(C)c(-c2ccc(OCCCN3CCC[C@H]3C)cc2)cc1=O [Example 101, 6-Methyl-2-(3-methyl-pyridin-2-yl)-5-{4-[3-((R)-2-methyl-pyrrolidin-1-yl)-propoxy]-phenyl}-2H-pyridazin-3-one] | 0.0001 to 0.1 | 0.0001 to 0.1
Cc1n[nH]c(=O)cc1-c1ccc(OC2CCN(C3CCC3)CC2)cc1 [Example 103, 5-[4-(1-Cyclobutyl-piperidin-4-yloxy)-phenyl]-6-methyl-2H-pyridazin-3-one] | 0.0001 to 0.1 | 0.0001 to 0.1
Cc1nn(-c2ccccn2)c(=O)cc1-c1ccc(OC2CCN(C3CCC3)CC2)cc1 [Example 104, 5-[4-(1-Cyclobutyl-piperidin-4-yloxy)-phenyl]-6-methyl-2-pyridin-2-yl-2H-pyridazin-3-one] | 0.0001 to 0.1 | 0.0001 to 0.1
O=c1cc(-c2ccc(OC3CCNCC3)cc2)cn[nH]1 [Example 105, 5-[4-(Piperidin-4-yloxy)-phenyl]-2H-pyridazin-3-one] | > 1 | > 1
O=c1cc(-c2ccc(OC3CCN(C4CCC4)CC3)cc2)cn[nH]1 [Example 106, 5-[4-(1-Cyclobutyl-piperidin-4-yloxy)-phenyl]-2H-pyridazin-3-one] | 0.0001 to 0.1 | 0.0001 to 0.1
Cc1nn(-c2ccsc2)c(=O)cc1-c1ccc(OC2CCN(C3CCC3)CC2)cc1 [Example 107, 5-[4-(1-Cyclobutyl-piperidin-4-yloxy)-phenyl]-6-methyl-2-thiophen-3-yl-2H-pyridazin-3-one] | 0.0001 to 0.1 | 0.0001 to 0.1
O=C1CC(c2ccccn2)C(c2ccc(OC3CCNCC3)cc2)=NN1 (stereo not drawn) [Example 113, 6-[4-(Piperidin-4-yloxy)-phenyl]-5-pyridin-2-yl-4,5-dihydro-2H-pyridazin-3-one] | > 1 | > 1
CC1CC(c2ccc(OC3CCN(C4CCC4)CC3)cc2)=NNC1=O (stereo not drawn) [Example 116, 6-[4-(1-Cyclobutyl-piperidin-4-yloxy)-phenyl]-4-methyl-4,5-dihydro-2H-pyridazin-3-one] | 0.0001 to 0.1 | 0.0001 to 0.1

Continued, values first:

Ki [1] [µM] | Ki [2] [µM] | SMILES
0.0001 to 0.1 | 0.0001 to 0.1 | Cc1cccnc1-n1ncc(-c2ccc(OCCCN3CCC[C@H]3C)cc2)cc1=O [Example 99, 2-(3-Methyl-pyridin-2-yl)-5-{4-[3-((R)-2-methylpyrrolidin-1-yl)-propoxy]-phenyl}-2H-pyridazin-3-one]
0.0001 to 0.1 | 0.0001 to 0.1 | Cc1nn(-c2ccccn2)c(=O)cc1-c1ccc(OCCCN2CCC[C@H]2C)cc1 [Example 100, 6-Methyl-5-{4-[3-((R)-2-methyl-pyrrolidin-1-yl)-propoxy]-phenyl}-2-pyridin-2-yl-2H-pyridazin-3-one]
0.0001 to 0.1 | 0.0001 to 0.1 | Cc1nn(-c2ccsc2)c(=O)cc1-c1ccc(OCCCN2CCC[C@H]2C)cc1 [Example 108, 6-Methyl-5-{4-[3-((R)-2-methyl-pyrrolidin-1-yl)-propoxy]-phenyl}-2-thiophen-3-yl-2H-pyridazin-3-one]
0.0001 to 0.1 | 0.0001 to 0.1 | C[C@@H]1CCCN1CCCOc1ccc(C2=NNC(=O)CC2c2ccccn2)cc1 (stereo partly drawn) [Example 111, 6-{4-[3-((R)-2-Methyl-pyrrolidin-1-yl)-propoxy]-phenyl}-5-pyridin-2-yl-4,5-dihydro-2H-pyridazin-3-one]
0.0001 to 0.1 | 0.0001 to 0.1 | O=c1cc(-c2ccc(OC3CCN(C4CCC4)CC3)nc2)cn[nH]1 [Example 117, 5-[6-(1-Cyclobutyl-piperidin-4-yloxy)-pyridin-3-yl]-2H-pyridazin-3-one]
